System: PMPMEase
Experiment: Inhibition of PMPMEase by drugs, curcumin, fatty acids and prostaglandins
Assay type: biochemical
Settings: for concentrations at which PMPMEase is inhibited: concentration range stated in words only

## CCCCC[C@H](O)/C=C/[C@H]1[C@H](O)CC(=O)[C@@H]1C/C=C\CCCC(=O)O [PGE2]
1 mM
  inhibition of PMPMEase at 1 mM: did not inhibit

## CCCCC[C@H](O)/C=C/[C@H]1C=CC(=O)[C@@H]1C/C=C\CCCC(=O)O [Prostaglandin (PG) A2]
Relative to arachidonic acid (AA)
  fold less potent than AA as PMPMEase inhibitor: 63 fold

## CCCCC/C=C\C/C=C\C/C=C\C/C=C\CCCC(=O)O [arachidonic acid]
  concentrations at which PMPMEase is inhibited: micromolar concentrations

## COc1cc(/C=C/C(=O)CC(=O)/C=C/c2ccc(O)c(OC)c2)ccc1O [curcumin]
  concentrations at which PMPMEase is inhibited: micromolar concentrations

## O=P1(N(CCCl)CCCl)NCCCO1 (stereo not drawn) [cyclophosphamide]
  concentrations at which PMPMEase is inhibited: millimolar concentrations

## CC/C(=C(\c1ccccc1)c1ccc(OCCN(C)C)cc1)c1ccccc1 [tamoxifen]
  concentrations at which PMPMEase is inhibited: millimolar concentrations

From patent publication US8592173B2, “Cancer diagnosis by measuring polyisoprenylated methylated protein methyl esterase activity” (Florida Agricultural and Mechanical University, priority 2011, dated 2013)
